In ChEMBL document CHEMBL3507680, “University of Dundee, Gates Library screen for HepG2 cell viability”:
Where “and” joins values, the source holds several entries; their conditions need not be identical. Identical values can stand only once.

Assay: Human HepG2 cell viability dose-response assay
Format: toxicity, cell-based
Conditions: not given

Compound | BOTTOM | HILLSLOPE | TOP | pXC50
C/N=C1/c2cc3cc(OC)ccc3n2CCN1Cc1ccccc1.Cl | -4.849 and -8.854 | 2.411 and 1.684 | 87.09 and 100 | 5.148 and 5.086
O=C(Nc1nccs1)c1csc(NC2CCCC2)n1 | -10.16 and -7.056 | 0.9548 and 1.411 | 100 | 4.822 and 4.869
CCCc1cc(=O)[nH]c(-n2nc(C3CC3)cc2N)n1 | 0 | 0 | 0 | < 4.53
c1ccc(OCC2CC3(CCN(CC4CCOCC4)CC3)CO2)nc1 (stereo not drawn) | 0 | 0 | 0 | < 4.53
CCn1cc(CN(C)S(=O)(=O)c2ccc(Cl)cc2)cn1 | 0 | 0 | 0 | < 4.53
c1ccc(CCN2CCCC2c2cccc(Nc3nccs3)n2)cc1 (stereo not drawn) | -11.18 and -9.985 | 1.416 and 1.359 | 100 | 5.661 and 5.625
Cc1cnc(Nc2cccc(C3CCCN3Cc3cn(C)nc3C)n2)s1 (stereo not drawn) | -7.108 and -9.894 | 1.821 and 1.15 | 87.64 and 100 | 5.777 and 5.662
Oc1cc(C2CCCN(Cc3cccs3)C2)nc(-c2ccccn2)n1 (stereo not drawn) | -7.306 and -6.343 | 1.489 and 1.356 | 100 | 4.83 and 4.808
Cn1nccc1CN1CCOC(c2cccc(Nc3ccccn3)n2)C1 (stereo not drawn) | – | 6.527 and 3.177 | 100.3 and 104.2 | 5.026 and 5.036
Cc1ccccc1CN1CCCC1c1cccc(Nc2nccs2)n1 (stereo not drawn) | -34.71 and -42.55 | 0.815 and 0.7597 | 100 | 6.34 and 6.398
Oc1cc(C2CCCCN2Cc2cccs2)nc(-c2ccccn2)n1 (stereo not drawn) | -3.23 and -7.213 | 1.278 and 1.267 | 100 | 5.076 and 5.09
CNc1cc(C2CN(Cc3scnc3C)CCO2)nc(C)n1 (stereo not drawn) | – | 1.929 and 1.812 | 107.3 and 109.8 | 4.988 and 5.003
CCc1ncc2c(n1)CN(Cc1ncc(C(C)(C)C)o1)CC2 | 0 | 0 | 0 | < 4.53
CN(CCC(F)(F)F)C(=O)C1CSCN1C(=O)C(C)(C)C (stereo not drawn) | 0 | 0 | 0 | < 4.53
NC(CC1CCCC1)c1ccc(Oc2ccccc2)cc1 (stereo not drawn) | -5.453 and -5.719 | 5.268 and 5.002 | 102.6 and 103.1 | 5.226 and 5.224
O=C(CN1CCc2sccc2C1)Nc1ccnc2ccnn12 | -24.28 and -16.58 | 0.9799 and 1.026 | 100 | 5.87 and 5.888
CNc1nc(C)cc(NCc2cc(C)cc3c(C)c(C)[nH]c23)n1 | -7.457 and -8.772 | 3.23 and 3.681 | 100 and 99.18 | 5.482 and 5.451
CC(C)(C)c1nccc(C2(c3ccccc3Cl)CCNCC2)n1 | 9.625 and 4.047 | 4.667 and 5.549 | 104.8 and 103.4 | 5.031 and 5.028
N#Cc1ccc(NCCNc2ccc(C(F)(F)F)cn2)nc1 | -5.895 and -10.21 | 4.246 and 4.413 | 101.3 and 101.1 | 5.913 and 5.918
CC(C)Cc1ccc(S(=O)(=O)Nc2ccc(=O)n(C)c2)cc1 | 0 | 0 | 0 | < 4.53
Cl.Cn1ccnc1N1CCN(C(=O)Cc2ccc(F)cc2)CC1 | 0 | 0 | 0 | < 4.53
COc1ccc(C)cc1CN1CCC(c2cc3ncccc3cn2)CC1.Cl | -3.004 and -4.306 | 10.96 and 6.205 | 101.8 and 102.1 | 5.072 and 5.187
Cl.Cl.Clc1cccc(C[C@@H]2NCCC[C@@H]2Nc2ccccc2)c1 | -6.539 and -3.827 | 13.96 and 17.86 | 101.8 | 5.306 and 5.329
O=C(O)C(F)(F)F.O=C1COC2(CCN(CC3CCC3)CC2)CN1c1cncnc1 | 0 | 0 | 0 | < 4.53

Assay: Human HepG2 cell viability assay in 384 well format
Format: toxicity, cell-based
Design: dose 125 nL, time 70.5 hour; concentration not given beside the values
Conditions: HepG2 cells, read-out: Inhibition

Compound | cytotoxicity at 70.5 h [%]
C/N=C1/c2cc3cc(OC)ccc3n2CCN1Cc1ccccc1.Cl | 61.3
O=C(Nc1nccs1)c1csc(NC2CCCC2)n1 | 62
CCCc1cc(=O)[nH]c(-n2nc(C3CC3)cc2N)n1 | 65.9
c1ccc(OCC2CC3(CCN(CC4CCOCC4)CC3)CO2)nc1 (stereo not drawn) | 62.9
CCn1cc(CN(C)S(=O)(=O)c2ccc(Cl)cc2)cn1 | 108
c1ccc(CCN2CCCC2c2cccc(Nc3nccs3)n2)cc1 (stereo not drawn) | 70.3
Cc1cnc(Nc2cccc(C3CCCN3Cc3cn(C)nc3C)n2)s1 (stereo not drawn) | 76
Oc1cc(C2CCCN(Cc3cccs3)C2)nc(-c2ccccn2)n1 (stereo not drawn) | 60.4
Cn1nccc1CN1CCOC(c2cccc(Nc3ccccn3)n2)C1 (stereo not drawn) | 84.1
Cc1ccccc1CN1CCCC1c1cccc(Nc2nccs2)n1 (stereo not drawn) | 70.5
Oc1cc(C2CCCCN2Cc2cccs2)nc(-c2ccccn2)n1 (stereo not drawn) | 64.3
CNc1cc(C2CN(Cc3scnc3C)CCO2)nc(C)n1 (stereo not drawn) | 98.7
CCc1ncc2c(n1)CN(Cc1ncc(C(C)(C)C)o1)CC2 | 60.9
CN(CCC(F)(F)F)C(=O)C1CSCN1C(=O)C(C)(C)C (stereo not drawn) | 100
NC(CC1CCCC1)c1ccc(Oc2ccccc2)cc1 (stereo not drawn) | 99
O=C(CN1CCc2sccc2C1)Nc1ccnc2ccnn12 | 74.2
CNc1nc(C)cc(NCc2cc(C)cc3c(C)c(C)[nH]c23)n1 | 98.8
CC(C)(C)c1nccc(C2(c3ccccc3Cl)CCNCC2)n1 | 78.4
N#Cc1ccc(NCCNc2ccc(C(F)(F)F)cn2)nc1 | 101
CC(C)Cc1ccc(S(=O)(=O)Nc2ccc(=O)n(C)c2)cc1 | 71.6
Cl.Cn1ccnc1N1CCN(C(=O)Cc2ccc(F)cc2)CC1 | 75
COc1ccc(C)cc1CN1CCC(c2cc3ncccc3cn2)CC1.Cl | 105
Cl.Cl.Clc1cccc(C[C@@H]2NCCC[C@@H]2Nc2ccccc2)c1 | 104
O=C(O)C(F)(F)F.O=C1COC2(CCN(CC3CCC3)CC2)CN1c1cncnc1 | 61.5
